# Data published in US20220062340A1, “IMMUNOTHERAPEUTIC METHODS AND COMPOSITIONS” (KING'S COLLEGE LONDON, priority 2018, published 2022).
# Assays:
# [1] = system: integrin α4β7 on Treg surface; test: Induction of integrin α4β7 on bulk Treg surface by RARα agonists (FIG. 6); type: cell-based; details: bulk CD4+CD25+CD127− Tregs, 12 days stimulation, reducing agonist concentrations
# Experimental: Bulk Tregs (CD4+CD25+CD127−) Tregs (50,000 per well) were expanded in vitro with reducing concentrations of the agonists. Culture conditions: 2 aCD3/aCD28 beads/cell, 1000IU/mL IL-2, 0.1 nM Rapamycin+Agonist in X-vivo 15. Following 12 days stimulation, cells were stained for CD4, CD25, CD127, FOXP3, Integrin a4, Integrin b7, CD15s, CD161 and acquired on a BD symphony flow cytometer. Data was analysed in Flowjo and Prism.
# FOXP3 in Tregs = test: FOXP3 expression of ex vivo expanded Tregs; type: cell-based, human; details: Tregs expanded in the presence of the agonist
# Experimental: (§1) FACS-sorted Treg populations were plated at 1×10^6 or 0.5×10^6 in X-VIVO-15 medium and activated with anti-CD3/anti-CD28 coated beads (Dynabeads®, Invitrogen, Paisley, UK) at 1:1 bead: cell ratio. Rapamycin was added at day 0 of culture at a final concentration of 100 nM/L +/−ATRA 1 nM/L or RAR568 1 nM/L. Next, 1,000 IU/ml recombinant human IL-2 (rhlL-2) (Proleukin®, Novartis, Camberley, UK) was added at day 5 of culture. Cells were re-stimulated every 10-12 days and expanded for a total of 24-30 days. The phenotype and suppressive ability were assessed at the end of the culture period.
# (§2) Flow cytometry panels have been designed to assess the subtypes of regulatory T cells in patients with CD as well as their expression of gut homing molecules. Gating was performed based on natural populations when assessing for CD4^+CD25^highCD127low populations, as well as for CD45RA^+ Treg populations. Additionally, to minimize bias in the assessment of expression of gut homing markers and transcription factors, a fluorochrome minus one (FMO) panel was added for each marker of interest in each experiment that was performed.
# Tregs from CD patients = test: Gene array of expanded Tregs from CD patients; type: cell-based, human
# Experimental: Gene array analyses were carried out using Partek® software with a 1-way ANOVA to assess for differential gene expression.
# 1) RNA extraction was performed using Qiagen RNEasy mini/micro kits as per manufacturer's instructions. The samples were checked for RNA quality using the Agilent 2100 Bioanalyzer and quantified using the Nanodrop (ND-1000 Spectrophotometer). Samples which passed QC (RIN>8) were chosen such that input amount of each sample was 3 ng.
# 2) SPIA cDNA was generated using the “Ovation Pico WTA System V2” kit from Nugen, following the manufacturer's instructions.
# 3) The SPIA cDNA was subjected to a QC check to assess quality (Agilent 2100 Bioanalyzer) and quantity (Nanodrop ND-1000 Spectrophotometer) for the next stage.
# 4) The SPIA cDNA was fragmented and Biotin-labelled using the “Encore Biotin Module” from Nugen according to the manufacturer's instructions and passed through QC checks to assess fragmentation size (Agilent 2100 Bioanalyzer).
# 6) Hybridization cocktails were prepared of the fragmented labelled-cDNA according to Nugen's recommendations and hybridized at 45° C. overnight in an oven.
# 7) The arrays were washed and stained using wash protocol FS450_0002 (Affymetrix protocol recommended for Human Gene 2.0 Arrays on the GeneChip Fluidics station 450.
# 8) The arrays were scanned using the Affymetrix GeneChip Scanner.
# Gene expression analyses were performed on Tregs from CD patients expanded in the presence of Rapa+ATRA, Rapa+RAR568 or rapamycin only (n=3 in each group). […] CD161 has previously been described as a marker of T helper (Th) 17-like Tregs^32. This was not observed in the RAR568-treated group. […] IL-18 Receptor 1 and STAT4 are responsible for Th1 lineage commitment and IFNγ production, both have been independently identified as IBD disease related polymorphisms on GWAS^33-36. CD38 has been identified as a marker associated with mature T cells, signaling reduced proliferation, but an increased ability to produce pro-inflammatory cytokines such as IFNγ^37. Ligation of GPR174 negatively affects Treg accumulation and function^38. No clear difference in transcripts for canonical pathways were identified when ATRA treated cells were compared with RAR568 treated cells.
# To assess for off target RARγ effects, we compared the gene expression profiles of RAR568 and ATRA treated cells to a published dataset of RARγ target genes^39. […] Given the efficacy at inducing α4β7 and lack of off target effects, RAR568 fulfilled the target product profile for an agent that could be used for ex vivo Treg expansion for cell-based therapy purposes. Therefore, we probed this effect of RAR568 on Tregs from CD patients in functional in vitro and in vivo trafficking assays.
# Effector T cells (Teff) = test: Treg suppression assay (proliferation of CFSE-labelled Teff); type: cell-based, human; details: lowest (8:1) Teff:Treg titration, FIG. 2e
# Experimental: Effector T cells (Teff) were labelled with carboxyfluorescein succinimidyl ester (CFSE, Invitrogen) according to standard protocols. Cells were washed with phosphate buffered saline (PBS) to remove excess protein. Cells were then incubated with a 1 μM/L CFSE solution in the dark at room temperature for 4 minutes. The reaction was then quenched with 9 ml of complete medium.
# Teff were activated with anti-CD3/anti-CD28 micro beads at a bead: Teff ratio of 0.02:1. 1×10^5 Teff were then cultured either alone or with Tregs in serial dilutions. The ratios of Teff: Treg were 1:1, 2:1, 4:1, and 8:1. This was done in X-VIVO-15 and proliferation rates were assessed by flow cytometry after 5 days of incubation.
# Percentage suppression (S) of proliferation was calculated using the following formula:
# Where c=percentage of proliferating precursors in the presence of Tregs and d=percentage of proliferating precursors in the absence of Tregs.
# integrin β7 on Tregs = test: Dose response of integrin β7 induction on expanded Tregs; type: cell-based; details: Homo sapiens; Tregs in in vitro culture, FIG. 2c; read-out: EC50 to induce the expression of integrin β7
# Experimental: as §1, §2
# Ex vivo expanded Tregs = test: IL-17 and IFNγ production under pro-inflammatory cytokine challenge (ELISA); type: cell-based, human; details: Tregs expanded ex vivo in the presence of the agonist, FIG. 2f
# Experimental: Cytokine concentrations were measured using the Ready-SET-Go sandwich ELISA kits from eBioscience.
# Ex vivo expanded Tregs were activated with CD3/CD28 beads at a 1:20 ratio and cultured at 10^6cells/m1 in X-VIVO for 5 days at 37° C./5% CO2, supplemented with the following cytokine cocktail: A) IL-2 (10 IU/mL, Proleukin); (B) IL-2, IL-1 (10 ng/mL), IL-6 (4 ng/mL) and transforming growth factor-β (TGF-β (5 ng/mL), IL-21 (25 ng/mL), IL-23 (25 ng/mL) (all R&D Systems). Supernatant IL-17 and interferon gamma (IFNγ) concentrations were measured by ELISA.
# integrin α4β7 on Tregs = test: α4β7 expression on ex vivo expanded CD45RA+ Tregs from CD patients (flow cytometry); type: cell-based, human; details: CD4+CD25hiCD127loCD45RA+ Tregs cultured with rapamycin and high dose IL-2 plus the agonist; mean ± SD
# Experimental: “Complete X-VIVO-15” (Lonza, Walkersville, MD) was used for ex vivo Treg expansion, Treg cytokine challenge experiments and Treg suppression assays. This was supplemented with 100 nM or 10 nM Rapamycin and all-trans retinoic acid (ATRA) 2 μM or 1 nM, or Rapamycin and RAR568 1 nM.
# as §1
# as §2, with “performed. […]” for “performed.”
# MAdCAM-1 = test: In-vitro trafficking assay, MAdCAM-1 coated Ibidi flow chamber; type: cell-based, human; details: cells treated with monoclonal antibody to integrin α4β7, FIG. 4
# Experimental: Ibidi (Martinsreid, Germany) μ-Slides VI″ were coated with recombinant human MAdCAM-1 (R&D Systems, Minneapolis, Minn.), at a concentration of 10μg/ml and incubated overnight. Cells from two CD patients that had previously undergone ex vivo expansion under two parallel conditions (Rapa and Rapa+RAR568) and had been frozen in liquid nitrogen were defrosted and rested overnight. Rested cells were then activated with rhCCL25 (R&D systems) and passed through the coated Ibidi flow chamber at a rate of 1 dyne/cm^2. The total number of cells, as well as those rolling, adherent and crawling was quantified from six randomly selected fields of view per treatment.
# In order to assess the physiological relevance of the induction of α4β7 expression by RAR568, treated and untreated Tregs from CD patients were passed through a MAdCAM-1 coated flow chamber (FIG. 10). The total number of cells adherent to the chamber, as well as their stages of rolling, adhesion and crawling, were compared to cells that were expanded under standard conditions.
compound,measurement,setting,value
"CC1(C)CCC(C)(C)c2cc(NC(=O)c3ccc(C(=O)O)cc3)ccc21 [AM80, tamibarotene]",induction of integrin α4β7 on Treg surface,[1],comparable effects
CC1(C)CCC(C)(C)c2cc(C(=O)Nc3ccc(C(=O)O)cc3)ccc21 [AM580],induction of integrin α4β7 on Treg surface,[1],comparable effects
"CC1=C(/C=C/C(C)=C/C=C/C(C)=C/C(=O)O)C(C)(C)CCC1 [ATRA, all-trans retinoic acid, reference compound]",FOXP3 expression of expanded Tregs,FOXP3 in Tregs; mean ± SD,86.15±19.88%
same,"FOXP3 expression, range",FOXP3 in Tregs; range,40.2-99.7
same,transcripts for CD161,"Tregs from CD patients; compared to rapamycin only, n=3",significant increase
same,"increase in the expression of STAT4, IL18R1, CD38 and GPR174","Tregs from CD patients; compared to rapamycin only, p<0.05, FIG. 3a",> 2 fold
same,RARγ target genes upregulated,"Tregs from CD patients; off target RARγ effects, compared to published dataset, FIG. 3b",Eleven
same,Suppressive ability of expanded Tregs,Effector T cells (Teff),became less suppressive at the lowest titration
same,EC50,integrin β7 on Tregs,1.5 nM
same,IFNγ production following pro-inflammatory cytokine challenge,Ex vivo expanded Tregs,did not produce
same,IL-17 production following pro-inflammatory cytokine challenge,Ex vivo expanded Tregs,did not produce
same,α4β7 expression of expanded Tregs,integrin α4β7 on Tregs,74.21±25.89
Vedolizumab: monoclonal antibody to integrin α4β7,cell migration of RAR568-treated Tregs in MAdCAM-1 coated flow chamber,MAdCAM-1,All stages of cell migration were blocked
